Here are results for 1 compound from patent US12384744B2, “Enzyme-cleavable methadone prodrugs and methods of use thereof” (Ensysce Biosciences Inc., priority 2021, dated 2025).

The experiment has as its system trypsin. Description: Digestion with trypsin (trypsin digestion of methadone prodrugs and release of methadone). Format: biochemical. The protocol:
FIG. 6 depicts an example of trypsin digestion of methadone prodrugs according to certain embodiments. All pro-drugs are digested fully within 8-24 h. The pro-drug with 1-methylethyl linker is slightly slower, requiring 24-48 h.

Regarding `CC=C(OC(=O)N(C)C(C)CNC(=O)[C@H](CCCNC(=N)N)NC(=O)c1ccccc1)C(CC(C)N(C)C)(c1ccccc1)c1ccccc1` (stereo partly drawn) [pro-drug with 1-methylethyl linker, 6-(dimethylamino)-4,4-diphenylhept-2-en-3-yl (1-((S)-2-benzamido-5-guanidinopentanamido)propan-2-yl)(methyl)carbamate], under “FIG. 6”, the “time until pro-drug is digested fully by trypsin” value was in the range of 24 to 48 h. Further, the “release of methadone from the release intermediate after trypsin digestion” value (FIG. 6 and FIGS. 7A-7D, result in words) is listed as “rapid release to methadone”.
